Columns and labels:
S. enterica Typhimurium = tested on: S. enterica Typhimurium; set-up: method as in PMID 36929450; conditions: 100 µM (supra-physiological); cited from earlier work
[1] = tested on: leup operon (leupeptin BGC) promoter in K. oxytoca ATCC 8724; assay: GFP-based transcriptional reporter for the leup operon; type: cell-based, Klebsiella oxytoca; conditions: carbohydrate screen, M9 + casamino acid + 0.4% indicated sugar, 30 °C, 24 h
Source text: We previously examined a panel of 84 clinical K. oxytoca isolates (including recently renamed Klebsiella michiganensis isolates) for the presence of either the leup operon or npsB, an NRPS of the tilimycin/tilivalline gene cluster. […] While the roles of tilivalline and tilimycin in hemorrhagic colitis are well studied[8],[9], the operon for leupeptin biosynthesis is “silent” in K. oxytoca under typical laboratory culture conditions (i.e., leupeptin production is undetectable). Therefore, our study commenced by exploring growth conditions required to trigger leupeptin biosynthesis in K. oxytoca. To achieve this, we generated a green fluorescent protein (GFP)-based reporter system to monitor leup transcription in K. oxytoca ATCC 8724 (recently renamed as Klebsiella michiganensis (ATCC 8724), Fig. 1a). We utilized λ-red recombineering techniques[38] to replace the first biosynthetic gene (leupA) of the leupeptin BGC with a GFP-spectinomycin resistance cassette. […] Consequently, conditions that elicit transcription of the leupeptin BGC can be monitored by GFP fluorescence intensity.
(§1) 5 mL of the leupeptin reporter strain was cultured aerobically in 10 g/L of LB (Becton Dickinson), yeast extract, GAM (HiMedia Laboratories), horse liver extract (HiMedia Laboratories), malt extract (VWR), meat extract (HiMedia Laboratories), YPD (Dot Scienticifc), brain heart infusion (Becton Dickinson), porcine mucin (Sigma-Aldrich, M1778), clostridial (Becton Dickinson), TSB (VWR), or casamino acid supplemented (5 g/L, VWR) M9 minimal salts (MP Biomedicals) at 30 °C for 24 h at 250 rpm. Cultures were lysed via sonication, centrifuged, and 150 µL of the supernatants were aliquoted into black well clear bottom 96 well plates. GFP fluorescence measurements were performed on a BioTek Synergy H1 plate reader with an excitation wavelength of 488 nm and an emission wavelength of 525 nm. For the carbohydrate screen, the leupeptin reporter strain was cultured in M9 minimal medium (MPbio) supplemented with casamino acid (5 g/L, VWR) and 0.4% indicated sugar aerobically at 30 °C for 24 h at 250 rpm.

K. oxytoca = assay: Culture growth (OD600) with sialic acid supplementation; type: cell-based, Klebsiella oxytoca; conditions: M9+CAS with sialic acid, peer review file, not added to the study
Method: as 2 times the recorded value). Importantly, all cultures in this experiment grew. […]
supplemented cultures. All cultures had reached stationary phase after 24 hours. While Neu5Gc cultures did grow slower than Neu5Ac cultures, the term suppression was incorrect. Therefore, we deleted text around Neu5Gc suppression and have changed line 123 to now read: […]
the SI. The following growth analysis was not added to the study.
2. Fig3 describes the role of PLP-enzyme for the production of pyrazines (features 5-9). From
Fig.3a it is clear that features 5 and 7 are different from 6, 8, and 9. Are there functional differences between these 2 groups of compounds in terms of siderophore production? […]
complementation of the pyr mutant with feature 7 could induce siderophore production (Fig4).
What about the features from the other group (6, 8, and 9)?
To address this comment, we performed RNA-seq analysis feeding compound 6 and looked at regulated genes/operons. Similar to compound 7, compound 6 supplementation increased the […]
a table listing specific genes, is now included in the SI. As such, lines 345-348 now read: […]
compound also differentially regulated the transcriptome (201 genes with Padj < 0.05; abs(log2FC) > 1) and enhanced the transcription of genes related to iron acquisition and iron metabolism (Supplemental Information).”
(also on this page, place not known: value ). PLP -enzyme -9). […]

[2] = tested on: wildtype K. oxytoca ATCC 8724; assay: Leupeptin detection in culture extracts by HPLC-QTOF-MS; type: cell-based, Klebsiella oxytoca; conditions: added to cultivation medium
Method: as §1
For MS-based determination of leupeptin activation, wildtype K. oxytoca ATCC 8724 was cultured in 5 mL of M9 minimal medium supplemented with 5 g/L casamino acids and 0.4% Neu5Ac. […] To measure the area under the curves for specific molecular features, the exact monoprotonated [M + H]^+ mass was calculated and extracted ion chromatographs (EICs) with a 10-ppm error were constructed. […]

Cc1c[nH]c(=O)c(C)n1 [DPO, dimethylpyrazine-2-ol]
effect on iron acquisition pathways (S. enterica Typhimurium): downregulated iron acquisition pathways

CC(=O)N[C@H]1[C@H]([C@H](O)[C@H](O)CO)OC(O)(C(=O)O)C[C@@H]1O (some centres unmarked) [Neu5Ac, N-acetylneuraminic acid]
GFP fluorescence, GFP Strain + Media ([1]; leup GFP reporter strain): 85763 RFU | GFP fluorescence, WT + Media ([1]; wildtype K. oxytoca without reporter (background)): 8846 RFU | culture growth (K. oxytoca): grew fastest | induction of leupeptin (1) production [2]: robust detection of leupeptin

— publication PMC11480411, “Mucosal sugars delineate pyrazine vs pyrazinone autoinducer signaling in Klebsiella oxytoca” (Nature Communications, 2024)
